Here are results for two compounds from patent US9789046B2, “Water-based resin nail polish” (LES FINS NETWORK TECHNOLOGY CO., LTD., priority 2015, dated 2017).

One may read the MIC50 as an inhibitory concentration at the 50% level, which refers to growth in some studies and to a panel of isolates in others.

Holding throughout (test): Antifungal activity experiment, 96-pore plate, MTT, OD 570 nm
What all share (assay type): cell-based
What all share (conditions): MH medium, 37° C., 24 h, read-out: semi-inhibition rate MIC50

In one experiment the test system is Trichophyton gypsum. As for the experimental part:
(§1) Bacteria (Trichophyton rubrum, Trichophyton gypsum and flocculent trichomementagrophytes) are suspended in an MH culture medium, the dispersion concentration is about 10^5 cfu·mL−1, the bacterial solution is added onto 96-pore plate (100 μL of the bacterial solution is added into each pore), the culture medium is used as a blank control, DMSO is used for substituting a test material as a negative control, and itraconazole (Xian-Janssen Pharmaceutical Ltd.) is used as a positive control. […] The 96-pore plate is placed into an incubator at 37° C. to be cultured for 24 h, then 25 μL of the prepared solution containing 4 mg of PBS of MTT for each mL is added into each hole, and the solution is cultured for 4 h under a same condition, 100 μL of SDS lysis solution (including 95 mL of triple-distilled, 10 g of SDS, 5 mL of isopropyl alcohol and 0.1 mL of concentrated hydrochloric acid) is added into each pore and then is cultured for 12 h. An enzyme labeling instrument is used for determining an OD value at 570 nm, and a percent inhibition rate is calculated according to the formula equation: […]

For another experiment, the system named is Trichophyton rubrum. As for the experimental part: as §1
In experiment [1] the test system is flocculent trichomementagrophytes. As for the experimental part: as §1

Structures are written as SMILES. Converted amounts (≈) assume the structure as drawn.

On to `COc1ccc(-c2cc(=O)c3cc(O)c(OC)c4c3n2OC2OC(C)=C(O)C=C2C4)cc1` (stereo not drawn) [compound of formula I], for which the MIC50 turned out to be 0.6 µg/mL in the experiment on Trichophyton gypsum, 0.63 µg/mL in the experiment on Trichophyton rubrum and 0.82 µg/mL in experiment [1].
With `CCC(C)n1ncn(-c2ccc(N3CCN(c4ccc(OCC5COC(Cn6cncn6)(c6ccc(Cl)cc6Cl)O5)cc4)CC3)cc2)c1=O` (stereo not drawn) [itraconazole], the values for the MIC50 (with Trichophyton gypsum; in the experiment on Trichophyton rubrum; in experiment [1]) were 0.7 µg/mL (≈ 0.992 µM), 0.63 µg/mL (≈ 0.893 µM) and 0.65 µg/mL (≈ 0.921 µM), respectively.
